Consider 18 molecules from US10738056B2 (Aduro BioTech, Inc., priority 2017, dated 2020).

For orientation: IC50 means the point on the concentration scale where inhibition reaches its midpoint.

Experiment [1] has as its target Human cGAS amino acids 155-522 (Homo sapiens (Human), UniProt Q8N884). As to the kind of experiment: cGAS biochemical activity assay (ATP remaining, Kinase-Glo Max luminescence). To be noted: human cGAS 155-522, ATP remaining (Kinase-Glo Max); read-out: cGAS IC50. Background: Kinase-Glo reads ATP consumption through a luciferase reaction.
The test system of experiment [2] is cGAS/STING pathway in THP1 cells. As to the kind of experiment: THP1 cell-based cGAS/STING pathway activity assay (IRF-3-linked luciferase reporter). To be noted: Homo sapiens, THP-1. The procedure, abridged: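 THP1 cells carrying an IRF-3-driven luciferase reporter were read across a range of compound concentrations, and IC50 values were derived from these concentration responses; the assay upper limit was 100 μM.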

The subject of experiment [3] is RANTES/CCL5 secretion by Trex1-KO BMM. As to the kind of experiment: Inhibition of RANTES/CCL5 secretion by Trex1-KO bone marrow-derived macrophages. To be noted: RANTES secretion; for IC50: Mus musculus, Macrophage, read-out: BMM IC50 R (RANTES). More on the design: key to BMM IC50 R (RANTES): A: an IC50 value less than 5 μM; B: an IC50 value between 5 and 20 μM; where an IC50 value could not be calculated from the data. Type of experiment: cell-based, mice. On the procedure: (§1) A cellular assay can be used to asses the compounds of the invention for their ability to inhibit cytokine production. Bone marrow macrophages harvested from mice can be used to determine response as a function of compound concentration.
(§2) The inhibition of secreted cytokine was measured in bone marrow-derived macrophages (BMMs) from diseased mice to evaluate the potency of compounds of the invention as described herein. […] To derive bone marrow macrophages, marrow extracted from the femurs and tibias were harvested from Trex1-KO mice was cultured in growth media supplemented with macrophage colony-stimulating factor (M-CSF). Differentiated BMM were harvested and frozen for subsequent experimentation. For treatment with compound C1089 (see Example 13), a frozen stock of Trex1-KO BMM was thawed and 1×10^5 cells were plated in 96 well format. BMMs were treated with a dilution series of C1089 and incubated overnight at 37° C. 5% CO2, at which point cellular supernatants were harvested and stored at −80° C. for subsequent analysis. The media used for this dilution series was without FBS. Remaining cells were evaluated for viability using Cell Titer Glo 2.0 kit according to the manufacturer instructions. BMM supernatants were evaluated for the secreted cytokine […] (RANTES/CCL5) or for secreted cytokine monocyte chemoattractant protein 1 (MCP-1/CCL2) using cytometric bead array mouse Flex Set kits (BD Biosciences). Cytokine concentration was calculated from a standard curve and normalized to vehicle (DMSO) treated cells.

Experiment [4] has as its system MCP-1/CCL2 secretion by Trex1-KO BMM. Kind of experiment: Inhibition of MCP-1/CCL2 secretion by Trex1-KO bone marrow-derived macrophages. Type of experiment: cell-based, mice. Also on record: key to BMM IC50 M (MCP-1): A: an IC50 value less than 5 μM; B: an IC50 value between 5 and 20 μM; where an IC50 value could not be calculated from the data. To be noted: MCP-1 secretion; for IC50: Mus musculus, Macrophage, read-out: BMM IC50 M (MCP-1). Here is the method:
as §1, §2

Human cGAS amino acids 155-522, sequence (Q8N884 157-522): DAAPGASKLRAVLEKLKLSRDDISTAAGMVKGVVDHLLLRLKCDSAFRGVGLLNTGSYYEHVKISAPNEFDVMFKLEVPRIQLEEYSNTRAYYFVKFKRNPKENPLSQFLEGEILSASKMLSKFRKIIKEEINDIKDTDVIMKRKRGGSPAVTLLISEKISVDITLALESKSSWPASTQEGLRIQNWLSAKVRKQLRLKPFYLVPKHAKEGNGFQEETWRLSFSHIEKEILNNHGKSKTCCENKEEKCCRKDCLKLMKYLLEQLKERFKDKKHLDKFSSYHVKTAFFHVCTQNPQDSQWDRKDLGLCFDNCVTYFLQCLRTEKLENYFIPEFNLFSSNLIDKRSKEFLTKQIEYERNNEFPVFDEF

`COc1ccc(C)c2oc(-c3c(C)[nH]c4c(-c5ccccc5)c(C(F)(F)F)nn4c3=O)nc12` [Compound C1092, 6-(4-methoxy-7-methylbenzo[d]oxazol-2-yl)-5-methyl-3-phenyl-2-(trifluoromethyl)pyrazolo[1,5-a]pyrimidin-7(4H)-one]: the values for the IC50 in experiment [1] and in experiment [2] were < 20 µM and > 100 µM, respectively. Also, the “BMM IC50 R (RANTES)” value in experiment [3] was “C”. Further, the “BMM IC50 M (MCP-1)” value in experiment [4] is given as “C”.
As to `COc1ccc(Cl)c2oc(-c3c(C)[nH]c4c(-c5ccccc5)c(C(F)(F)F)nn4c3=O)nc12` [Compound C1094, 6-(7-chloro-4-methoxybenzo[d]oxazol-2-yl)-5-methyl-3-phenyl-2-(trifluoromethyl)pyrazolo[1,5-a]pyrimidin-7(4H)-one], the IC50 in experiment [1] is < 20 µM; in experiment [2], < 20 µM; in experiment [3] it was < 5 µM. Also, in experiment [4], the “BMM IC50 M (MCP-1)” value is reported as “C”.
In the case of `COc1cc(C)cc2oc(-c3c(C)[nH]c4c(-c5ccccc5)c(C(F)(F)F)nn4c3=O)nc12` [Compound C1098, 6-(4-methoxy-6-methylbenzo[d]oxazol-2-yl)-5-methyl-3-phenyl-2-(trifluoromethyl)pyrazolo[1,5-a]pyrimidin-7(4H)-one], the IC50 was < 20 µM in experiment [1], < 20 µM in experiment [2], < 5 µM in experiment [3] and 5 to 20 µM in experiment [4].
Turning to `COc1cccc2oc(-c3c(COCc4ccccc4)[nH]c4c(-c5ccccc5)c(C(F)(F)F)nn4c3=O)nc12` [Compound C1099, 5-((benzyloxy)methyl)-6-(4-methoxybenzo[d]oxazol-2-yl)-3-phenyl-2-(trifluoromethyl)pyrazolo[1,5-a]pyrimidin-7(4H)-one], the IC50 in experiment [1] and in experiment [2] was < 20 µM in each case. Moreover, the “BMM IC50 R (RANTES)” value in experiment [3] is listed as “C”. Moreover, the “BMM IC50 M (MCP-1)” value in experiment [4] was “C”.
`COc1cc(Cl)cc2oc(-c3c(C)[nH]c4c(-c5ccccc5)c(C(F)(F)F)nn4c3=O)nc12` [Compound C1105, 6-(6-chloro-4-methoxybenzo[d]oxazol-2-yl)-5-methyl-3-phenyl-2-(trifluoromethyl)pyrazolo[1,5-a]pyrimidin-7(4H)-one]: the IC50 is < 20 µM in experiment [1], < 20 µM in experiment [2], < 5 µM in experiment [3] and 5 to 20 µM in experiment [4].
Turning to `COc1ccc(C(N)=O)c2oc(-c3c(C)[nH]c4c(-c5ccccc5)c(C(F)(F)F)nn4c3=O)nc12` [Compound C1113, 4-methoxy-2-(5-methyl-7-oxo-3-phenyl-2-(trifluoromethyl)-4,7-dihydropyrazolo[1,5-a]pyrimidin-6-yl)benzo[d]oxazole-7-carboxamide], the results for the concentration for half-maximal inhibition (IC50) in experiment [1], in experiment [2] and in experiment [4] were < 20 µM, < 20 µM and < 5 µM, respectively. Besides, the “BMM IC50 R (RANTES)” value in experiment [3] is recorded as “C”.
For the molecule `COc1cccc2oc(-c3c(C)[nH]c4c(-c5cccc(F)c5)c(C(F)(F)F)nn4c3=O)nc12` [Compound C1114, 3-(3-fluorophenyl)-6-(4-methoxybenzo[d]oxazol-2-yl)-5-methyl-2-(trifluoromethyl)pyrazolo[1,5-a]pyrimidin-7(4H)-one], the IC50 is < 20 µM in experiment [1], < 20 µM in experiment [2] and 5 to 20 µM in experiment [4]. For the same molecule, the “BMM IC50 R (RANTES)” value in experiment [3] was “C”.
With `Cc1[nH]c2c(-c3ccccc3)c(C(F)(F)F)nn2c(=O)c1-c1nc2c(OCC(=O)O)cccc2o1` [Compound C1117, 2-((2-(5-methyl-7-oxo-3-phenyl-2-(trifluoromethyl)-4,7-dihydropyrazolo[1,5-a]pyrimidin-6-yl)benzo[d]oxazol-4-yl)oxy)acetic acid], the values for the IC50 in experiment [1] and in experiment [2] were < 20 µM and > 100 µM, respectively. For the same molecule, the “BMM IC50 R (RANTES)” value in experiment [3] is reported as “C”. Besides, in experiment [4], the “BMM IC50 M (MCP-1)” value is reported as “C”.
On to `COc1cccc2oc(-c3c(C(F)(F)F)[nH]c4c(-c5ccccc5)c(C#N)nn4c3=O)nc12` [Compound C1118, 6-(4-methoxybenzo[d]oxazol-2-yl)-7-oxo-3-phenyl-5-(trifluoromethyl)-4,7-dihydropyrazolo[1,5-a]pyrimidine-2-carbonitrile], for which the half-inhibitory concentration (IC50) in experiment [1] is < 20 µM; in experiment [2], < 20 µM; in experiment [3], < 5 µM. Besides, the “BMM IC50 M (MCP-1)” value in experiment [4] was “C”.
`COc1cccc2oc(-c3c(C)[nH]c4c(-c5cc(F)cc(F)c5)c(C(F)(F)F)nn4c3=O)nc12` [Compound C1119, 3-(3,5-difluorophenyl)-6-(4-methoxybenzo[d]oxazol-2-yl)-5-methyl-2-(trifluoromethyl)pyrazolo[1,5-a]pyrimidin-7(4H)-one]: the IC50 in experiment [1] and in experiment [2] was < 20 µM each time. Moreover, the “BMM IC50 R (RANTES)” value in experiment [3] is given as “C”. Moreover, the “BMM IC50 M (MCP-1)” value in experiment [4] is “C”.
Turning to `COc1cccc2oc(-c3c(SC)[nH]c4c(-c5ccccc5)c(C(F)(F)F)nn4c3=O)nc12` [Compound C1121, 6-(4-methoxybenzo[d]oxazol-2-yl)-5-(methylthio)-3-phenyl-2-(trifluoromethyl)pyrazolo[1,5-a]pyrimidin-7(4H)-one], the figures for the IC50 in experiment [1], in experiment [2] and in experiment [4] were < 20 µM, < 20 µM and < 5 µM, respectively. Moreover, the “BMM IC50 R (RANTES)” value in experiment [3] is recorded as “C”.
For `COc1cc(N)cc2oc(-c3c(C)[nH]c4c(-c5ccccc5)c(C(F)(F)F)nn4c3=O)nc12` [Compound C1123, 6-(6-amino-4-methoxybenzo[d]oxazol-2-yl)-5-methyl-3-phenyl-2-(trifluoromethyl)pyrazolo[1,5-a]pyrimidin-7(4H)-one], the IC50 in experiment [1] is < 20 µM; in experiment [2], 20 to 100 µM. Also, in experiment [3], the “BMM IC50 R (RANTES)” value is “C”. In addition, in experiment [4], the “BMM IC50 M (MCP-1)” value is listed as “C”.
`COc1c(C#N)ccc2oc(-c3c(C)[nH]c4c(-c5ccccc5)c(C(F)(F)F)nn4c3=O)nc12` [Compound C1126, 4-methoxy-2-(5-methyl-7-oxo-3-phenyl-2-(trifluoromethyl)-4,7-dihydropyrazolo[1,5-a]pyrimidin-6-yl)benzo[d]oxazole-5-carbonitrile]: the 50% inhibitory concentration (IC50) is < 20 µM in experiment [1] and 20 to 100 µM in experiment [2]. Further, in experiment [3], the “BMM IC50 R (RANTES)” value is given as “C”. Besides, in experiment [4], the “BMM IC50 M (MCP-1)” value is “C”.
With `COc1cccc2oc(-c3c(COC4CCCCO4)[nH]c4c(-c5ccccc5)c(C(F)(F)F)nn4c3=O)nc12` (stereo not drawn) [Compound C1134, 6-(4-methoxybenzo[d]oxazol-2-yl)-3-phenyl-5-(((tetrahydro-2H-pyran-2-yl)oxy)methyl)-2-(trifluoromethyl)pyrazolo[1,5-a]pyrimidin-7(4H)-one], the IC50 was < 20 µM in experiment [1], < 20 µM in experiment [2] and 5 to 20 µM in experiment [4]. Moreover, the “BMM IC50 R (RANTES)” value in experiment [3] is listed as “C”.
With `COc1cccc2oc(-c3c(CSC)[nH]c4c(-c5ccccc5)c(C(F)(F)F)nn4c3=O)nc12` [Compound C1136, 6-(4-methoxybenzo[d]oxazol-2-yl)-5-((methylthio)methyl)-3-phenyl-2-(trifluoromethyl)pyrazolo[1,5-a]pyrimidin-7(4H)-one], the values for the 50% inhibitory concentration (IC50) in experiment [1], in experiment [2] and in experiment [4] were < 20 µM, < 20 µM and 5 to 20 µM, respectively. Moreover, in experiment [3], the “BMM IC50 R (RANTES)” value is on record as “C”.
Turning to `COCc1[nH]c2c(-c3ccccc3)c(C#N)nn2c(=O)c1-c1nc2c(OC)cccc2o1` [Compound C1139, 6-(4-methoxybenzo[d]oxazol-2-yl)-5-(methoxymethyl)-7-oxo-3-phenyl-4,7-dihydropyrazolo[1,5-a]pyrimidine-2-carbonitrile], the IC50 in experiment [1] was < 20 µM; in experiment [2], < 20 µM; in experiment [3], 5 to 20 µM; in experiment [4], 5 to 20 µM.
As for `COCc1[nH]c2c(-c3ccccc3)c(C#N)nn2c(=O)c1-c1nc2c(OC)cc(Cl)cc2o1` [Compound C1145, 6-(6-chloro-4-methoxybenzo[d]oxazol-2-yl)-5-(methoxymethyl)-7-oxo-3-phenyl-4,7-dihydropyrazolo[1,5-a]pyrimidine-2-carbonitrile], the IC50 in experiment [1] and in experiment [2] was < 20 µM throughout. The “BMM IC50 R (RANTES)” value in experiment [3] is on record as “C”. The “BMM IC50 M (MCP-1)” value in experiment [4] is on record as “C”.
`COCCOCc1[nH]c2c(-c3ccccc3)c(C(F)(F)F)nn2c(=O)c1-c1nc2c(OC)cccc2o1` [Compound C1151, 6-(4-methoxybenzo[d]oxazol-2-yl)-5-((2-methoxyethoxy)methyl)-3-phenyl-2-(trifluoromethyl)pyrazolo[1,5-a]pyrimidin-7(4H)-one]: the 50% inhibitory concentration (IC50) in experiment [1] is < 20 µM; in experiment [2] it was < 20 µM; in experiment [3] it was 5 to 20 µM. For the same molecule, in experiment [4], the “BMM IC50 M (MCP-1)” value is recorded as “C”.
